# Assay results published in patent US9375006B2, “5- halogenopyrazole benzofuranyl carboxamides” (BAYER CROPSCIENCE AG, priority 2012, dated 2016).
# Columns and labels:
# Puccinia recondita = assay: In vivo preventive test on Puccinia recondita (brown rust on wheat); conditions: wheat plants, preventive spray, grading 12 days after contamination
# Procedure: (§1) The active ingredients tested are prepared by homogenization in a mixture of acetone/tween/DMSO, and then diluted with water to obtain the desired active material concentration.
# Wheat plants (“Scipion” variety), sown in starter cups on a 50/50 peat soil-pozzolana substrate and grown at 22° C., are treated at the 1-leaf stage (10 cm height) by spraying with the active ingredient prepared as described above. Plants, used as controls, are treated with the mixture of acetone/tween/DMSO/water not containing the active material.
# (§2) After 24 hours, the plants are contaminated by spraying the leaves with an aqueous suspension of Puccinia condita spores (100 000 spores per ml). The spores are collected from an infected plant and are suspended in water containing 2.5 ml/l of Tween 80 at 10%. The contaminated wheat plants are incubated for 24 hours at 20° C. and at 100% relative humidity, and then for 10 days at 20° C. and at 70-80% relative humidity.
# (§3) Grading (% of efficacy) is carried out 12 days after the contamination, in comparison with the control plants.
# Uromyces appendiculatus = assay: In vivo preventive test on Uromyces appendiculatus (bean rust); conditions: bean plants, preventive spray, grading 11 days after contamination
# Procedure: as §1
# Bean plants (“Saxa” variety), sown in starter cups on a 50/50 peat soil-pozzolana substrate and grown at 24° C., are treated at the 2-leaf stage (9 cm height) by spraying with the active ingredient prepared as described above. Plants, used as controls, are treated with the mixture of acetone/tween/DMSO/water not containing the active material.
# as §2, with “of Uromyces appendiculatus” for “of Puccinia condita”, “spores (150” for “spores (100”, “from” for “from an”, “infected plants” for “infected plant”, “contaminated bean” for “contaminated wheat”
# Grading (% of efficacy) is carried out 11 days after the contamination, in comparison with the control plants.
# [1] = logP by HPLC on reversed phase columns (EEC directive 79/831 Annex V.A8); assay type: physicochemical; conditions: method [a]: LC-MS at pH 2.7, 0.1% formic acid in water / acetonitrile; for chromatographic logP: reversed phase HPLC columns
# Procedure: Measurement of log P values was performed according EEC directive 79/831 Annex V.A8 by HPLC (High Performance Liquid Chromatography) on reversed phase columns with the following methods: ^[a] Measurement of LC-MS was done at pH 2.7 with 0.1% formic acid in water and with acetonitrile (contains 0.1% formic acid) as eluent with a linear gradient from 10% acetonitrile to 95% acetonitrile. ^[b] Measurement with LC-MS was done at pH 7.8 with 0.001 molar ammonium hydrogen carbonate solution in water as eluent with a linear gradient from 10% acetonitrile to 95% acetonitrile.
# Pyrenophora teres = assay: In vivo preventive test on Pyrenophora teres (net blotch on barley); conditions: 100 ppm, barley plants, preventive spray, grading 14 days after contamination
# Procedure: Barley plants (“Plaisant” variety), sown in starter cups on a 50/50 peat soil-pozzolana substrate and grown at 22° C., are treated at the 1-leaf stage (10 cm height) by spraying with the active ingredient prepared as described above. Plants, used as controls, are treated with the mixture of acetone/tween/DMSO/water not containing the active material. After 24 hours, the plants are contaminated by spraying the leaves with an aqueous suspension of Pyrenophora teres spores (12 000 spores per ml). The spores are collected from a 12-day-old culture. The contaminated barley plants are incubated for 48 hours at 20° C. and at 100% relative humidity, and then for 12 days at 20° C. at 70-80% relative humidity. Grading (% of efficacy) is carried out 14 days after the contamination, in comparison with the control plants.
# Sphaerotheca fuliginea = assay: In vivo preventive test on Sphaerotheca fuliginea (powdery mildew on cucurbits); conditions: 100 ppm, gherkin plants, preventive spray, grading 12 days after contamination
# Procedure: (§4) The active ingredients tested are prepared by homogenization in a mixture of acetone/tween/DMSO and then diluted with water to obtain the desired active material concentration.
# (§5) Gherkin plants (“Vert petit de Paris” variety), sown in starter cups on a 50/50 peat soil-pozzolana substrate and grown at 24° C., are treated at the Z11 cotyledon stage by spraying with the active ingredient prepared as described above. Plants, used as controls, are treated with the mixture of acetone/tween/DMSO/water not containing the active material.
# After 24 hours, the plants are contaminated by spraying the cotyledons with an aqueous suspension of Sphaerotheca fuliginea spores (100 000 spores per ml). The spores are collected from infected plants. The contaminated gherkin plants are incubated at about 20° C. and at 70-80% relative humidity.
# as §3
# Botrytis cinerea = assay: In vivo preventive test on Botrytis cinerea (grey mould), gherkin plants; conditions: 100 ppm, preventive spray, grading 4 to 5 days after contamination
# Procedure: as §4, §5
# After 24 hours, the plants are contaminated by spraying the cotyledons with an aqueous suspension of cryopreserved Botrytis cinerea spores (50 000 spores per ml). The spores are suspended in a nutrient solution composed of 10 g/L of PDB, 50 g/L of D-Fructose, 2 g/L of NH4NO3 and 1 g/L of KH2PO4. The contaminated gherkin plants are incubated at 17° C. and at 90% relative humidity.
# Grading (% of efficacy) is carried out 4 to 5 days after the contamination, in comparison with the control plants.
# Alternaria brassicae = assay: In vivo preventive test on Alternaria brassicae (leaf spot on radish); conditions: 100 ppm, radish plants, preventive spray, grading 6 days after contamination
# Procedure: Radish plants (“Pernod Clair” variety), sown in starter cups on a 50/50 peat soil-pozzolana substrate and grown at 17° C., are treated at the cotyledon stage by spraying with the active ingredient prepared as described above. Plants, used as controls, are treated with the mixture of acetone/tween/DMSO/water not containing the active material. After 24 hours, the plants are contaminated by spraying the cotyledons with an aqueous suspension of Alternaria brassicae spores (50 000 spores per ml). The spores are collected from a 15-day-old culture. The contaminated radish plants are incubated at 20° C. and at 100% relative humidity. Grading (% of efficacy) is carried out 6 days after the contamination, in comparison with the control plants.
SMILES,Eff. % (Puccinia recondita; 100 ppm),Eff. % (Uromyces appendiculatus; 100 ppm),logP [1],Eff. % (Puccinia recondita; 500 ppm),Eff. % (Uromyces appendiculatus; 500 ppm),Eff. % (Pyrenophora teres),Eff. % (Sphaerotheca fuliginea),Eff. % (Botrytis cinerea),Eff. % (Alternaria brassicae),chromatographic logP [1]
CCC1OCc2cccc(NC(=O)c3c(C(F)F)nn(C)c3Br)c21 (centres unmarked) [Example 20],98%,100%,2.96[a],–,–,–,–,–,–,–
Cn1nc(C(F)F)c(C(=O)Nc2cccc3c2COC3(C)C)c1Cl [Example 4],–,–,2.55[a],100%,100%,–,–,–,–,–
CC(C)C1OC(C)(C)c2cccc(NC(=O)c3c(C(F)F)nn(C)c3Br)c21 (centres unmarked) [Example 17],94%,100%,3.33[a],–,–,83%,–,–,–,–
CCC1OC(C)(C)c2cccc(NC(=O)c3cn(C)nc3C(F)F)c21 (centres unmarked) [Example 16],98%,100%,–,–,–,83%,98%,83%,–,–
CCC1OC(CC)(CC)c2cccc(NC(=O)c3cn(C)nc3C(F)F)c21 (centres unmarked) [Example 23],98%,100%,3.26[a],–,–,92%,100%,97%,88%,–
CCC1OC(C)(C)c2cccc(NC(=O)c3c(C(F)F)nn(C)c3F)c21 (centres unmarked) [Example 21],98%,100%,2.76[a],–,–,–,98%,93%,–,–
CCC1OC(CC)(CC)c2cccc(NC(=O)c3c(C(F)F)nn(C)c3Cl)c21 (centres unmarked) [Example 18],98%,100%,3.87[a],–,–,83%,100%,–,75%,–
CC1OC(C)(C)c2cccc(NC(=O)c3cn(C)nc3C(F)F)c21 (centres unmarked) [Example 10],–,–,2.15[a],94%,95%,–,–,–,–,–
CC1OC(C)(C)c2cccc(NC(=O)c3c(C(F)F)nn(C)c3Br)c21 (centres unmarked) [Example 5],–,–,2.64[a],97%,100%,–,–,–,–,–
"CCC1OC(CC)(CC)c2cccc(NC(=S)c3cn(C)nc3C(F)F)c21 (centres unmarked) [Example 26, 3-(difluoromethyl)-1-methyl-N-(1,1,3-triethyl-1,3-dihydro-2-benzofuran-4-yl)-1H-pyrazole-4-carbothioamide]",–,–,–,–,–,–,–,–,–,3.76
CC(C)C1OC(C)(C)c2cccc(NC(=O)c3cn(C)nc3C(F)F)c21 (centres unmarked) [Example 25],98%,99%,2.76[a],–,–,83%,100%,98%,75%,–
CCC1OC(CC)(CC)c2cccc(NC(=O)c3c(C(F)F)nn(C)c3Br)c21 (centres unmarked) [Example 19],98%,100%,3.87[a],–,–,–,83%,–,75%,–
"CC(C)C1OC(C)(C)c2cccc(NC(=O)c3c(C(F)F)nn(C)c3F)c21 (centres unmarked) [Example 22, 3-(difluoromethyl)-5-fluoro-N-(3-isopropyl-1,1-dimethyl-1,3-dihydro-2-benzofuran-4-yl)-1-methyl-1H-pyrazole-4-carboxamide]",98%,99%,–,–,–,97%,100%,98%,–,3.11
CC(C)C1OC(C)(C)c2cccc(NC(=O)c3c(C(F)F)nn(C)c3Cl)c21 (centres unmarked) [Example 14],98%,100%,3.33[a],–,–,92%,100%,93%,75%,–
Cn1nc(C(F)F)c(C(=O)Nc2cccc3c2COC3(C)C)c1F [Example 3],–,–,2.35[a],100%,100%,–,–,–,–,–
CCC1OC(C)(C)c2cccc(NC(=O)c3c(C(F)F)nn(C)c3Cl)c21 (centres unmarked) [Example 15],100%,100%,2.94[a],–,–,92%,98%,–,75%,–
Cn1cc(C(=O)Nc2cccc3c2COC3(C)C)c(C(F)F)n1 [Example 7],–,–,2.1[a],98%,100%,–,–,–,–,–
